Patent US20260232682A1, “GSPT1 DEGRADER COMPOUNDS” (Captor Therapeutics S.A., priority 2023, published 2026)

Target: T1, [IKZF2 ZF2]-[compound]-[CRBN/DDB1] ternary complex (Homo sapiens, UniProt Q96SW2+Q9UKS7)
T1 construct: IKZF2 ZF2
Test: AlphaLISA assay for off-target recruitment detection, IKZF2 ZF2
Assay type: binding
Conditions: 1 μM compound; normalized to Helios modulator; read-out: Normalized ternary complex response, IKZF2 ZF2
Method: The ability of the molecular glue compounds of the invention to mediate the proximity of CRBN with its known neo-substrates (shown in Table 3) was assessed using AlphaLISA to detect the formation of a [neo-substrate]-[compound of formula (I)]-[CRBN/DDB1] ternary complex.
Two types of protein solution were prepared: • neo-substrate, 40 μg/ml AlphaScreen Donor Beads (Table 3) in PBS (10 mM phosphate buffer, 137 mM NaCL, 2.7 mM KCl, pH 7.4) buffer supplemented with Tween-20 (Table 3) and 1 mM DTT, • 200 nM 6×His-CRBN/DDB1, 40 μg/ml AlphaLISA Anti-6×His Acceptor beads in PBS buffer with Tween-20 (Table 3) and 1 mM DTT.
The prepared solutions were incubated at room temperature for 30 min and then the solution containing the donor beads was mixed with the solution containing the acceptor beads.
The tested compounds were dispensed onto a white 384-well AlphaPlate 384 SW. DMSO was backfilled to all wells, resulting in a final DMSO content of 2%. Wells containing only DMSO served as background. Next, 10 μl of solution with donor and acceptor beads was added to the wells.
The plate was sealed with transparent film and shaken using a VibroTurbulator for 60 sec at room temperature, level 3. The plate was then spun down shortly (10 sec, 1000 rcf, room temperature) and incubated at 25° C. for 30 min.
The read-out was performed with PerkinElmer Enspire Multimode Plate Reader (method for AlphaLISA 384-well low volume, Filterset: λexc=680 nm, λem=615 nm).
The results were analyzed as follows: • 1) an average of luminescence for background signal was calculated and used as a negative control; • 2) an average of the maximum measured luminescence for reference compound (Table 3) was calculated and used as an internal positive control; • 3) raw luminescence values were normalized against positive and negative controls; • 4) Normalized responses to reference molecular glue were determined.

T1 sequence (Q9UKS7 140-162 limits assumed): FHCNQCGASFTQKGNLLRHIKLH
T1 sequence (Q96SW2 whole entry): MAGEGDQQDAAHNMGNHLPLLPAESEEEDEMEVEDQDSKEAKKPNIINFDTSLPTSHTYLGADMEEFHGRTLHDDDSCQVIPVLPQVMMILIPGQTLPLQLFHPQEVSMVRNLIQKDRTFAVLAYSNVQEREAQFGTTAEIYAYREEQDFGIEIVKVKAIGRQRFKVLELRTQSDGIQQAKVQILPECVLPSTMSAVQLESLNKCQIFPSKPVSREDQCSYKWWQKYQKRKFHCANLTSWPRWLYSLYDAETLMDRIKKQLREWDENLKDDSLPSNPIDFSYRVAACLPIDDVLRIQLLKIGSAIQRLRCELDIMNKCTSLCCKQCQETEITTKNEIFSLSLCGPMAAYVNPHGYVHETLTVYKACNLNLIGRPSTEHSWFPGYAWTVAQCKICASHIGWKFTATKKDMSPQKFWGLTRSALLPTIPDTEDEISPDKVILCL
T1 sequence (Q16531 whole entry partner): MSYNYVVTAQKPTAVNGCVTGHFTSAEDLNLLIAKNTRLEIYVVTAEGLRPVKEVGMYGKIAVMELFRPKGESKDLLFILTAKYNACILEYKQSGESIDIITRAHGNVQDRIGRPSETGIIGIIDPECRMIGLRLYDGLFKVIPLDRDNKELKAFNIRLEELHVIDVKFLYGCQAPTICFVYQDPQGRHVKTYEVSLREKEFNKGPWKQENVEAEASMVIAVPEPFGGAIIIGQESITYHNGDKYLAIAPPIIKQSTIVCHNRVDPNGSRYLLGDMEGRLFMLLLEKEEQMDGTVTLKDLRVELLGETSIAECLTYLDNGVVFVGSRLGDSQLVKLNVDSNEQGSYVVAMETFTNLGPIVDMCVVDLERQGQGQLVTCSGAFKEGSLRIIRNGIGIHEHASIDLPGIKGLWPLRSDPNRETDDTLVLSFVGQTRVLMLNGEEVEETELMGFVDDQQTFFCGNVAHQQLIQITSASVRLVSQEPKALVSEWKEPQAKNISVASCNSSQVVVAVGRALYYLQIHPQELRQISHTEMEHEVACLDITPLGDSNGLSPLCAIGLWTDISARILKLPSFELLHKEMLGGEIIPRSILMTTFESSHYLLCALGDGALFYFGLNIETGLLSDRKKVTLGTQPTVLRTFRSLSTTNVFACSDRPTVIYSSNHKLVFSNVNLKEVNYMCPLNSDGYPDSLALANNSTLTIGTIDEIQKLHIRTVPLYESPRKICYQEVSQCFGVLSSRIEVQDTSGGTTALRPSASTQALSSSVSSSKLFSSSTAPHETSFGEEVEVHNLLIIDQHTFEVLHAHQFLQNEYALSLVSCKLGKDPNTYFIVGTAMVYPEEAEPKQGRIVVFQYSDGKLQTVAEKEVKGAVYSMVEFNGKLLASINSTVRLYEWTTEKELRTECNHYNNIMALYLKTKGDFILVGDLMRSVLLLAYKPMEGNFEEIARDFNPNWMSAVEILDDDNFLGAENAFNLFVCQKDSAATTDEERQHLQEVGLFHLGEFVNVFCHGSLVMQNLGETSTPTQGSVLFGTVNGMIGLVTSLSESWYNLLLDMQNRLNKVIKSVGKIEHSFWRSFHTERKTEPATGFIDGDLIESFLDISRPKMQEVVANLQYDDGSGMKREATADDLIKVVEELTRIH

`Cc1nc2cc(COC(=O)Nc3cc(OC(F)(F)F)ccc3F)ccc2cc1C1CCC(=O)NC1=O` (stereo not shown) [Compound 6, (3-(2,6-dioxopiperidin-3-yl)-2-methylquinolin-7-yl)methyl (2-fluoro-5-(trifluoromethoxy)phenyl)carbamate] and `Cc1nc2cc(COC(=O)Nc3cccc(OC(F)(F)F)c3)ccc2cc1C1CCC(=O)NC1=O` (stereo not shown) [Compound 19, (3-(2,6-dioxopiperidin-3-yl)-2-methylquinolin-7-yl)methyl (3-(trifluoromethoxy)phenyl)carbamate] cannot be ordered by activation at 1 µM: under 10% for the first, under 10% for the second.

`Cc1nc2cc(COC(=O)Nc3ccc(C(C)(C)C)cc3)ccc2cc1C1CCC(=O)NC1=O` (stereo not shown) [Compound 8, (3-(2,6-dioxopiperidin-3-yl)-2-methylquinolin-7-yl)methyl (4-(tert-butyl)phenyl)carbamate] and `Cc1nc2cc(COC(=O)Nc3cccc(C(C)(C)C)c3)ccc2cc1C1CCC(=O)NC1=O` (stereo not shown) [Compound 9, (3-(2,6-dioxopiperidin-3-yl)-2-methylquinolin-7-yl)methyl (3-(tert-butyl)phenyl)carbamate] cannot be ordered by activation at 1 µM: under 10% for the first, under 10% for the second.

`Cc1nc2cc(COC(=O)Nc3ccc(C(C)(C)C)c(Cl)c3)ccc2cc1C1CCC(=O)NC1=O` (stereo not shown) [Compound 10, (3-(2,6-dioxopiperidin-3-yl)-2-methylquinolin-7-yl)methyl (4-(tert-butyl)-3-chlorophenyl)carbamate] and `Cc1ccc(NC(=O)OCc2ccc3cc([C@@H]4CCC(=O)NC4=O)c(C)nc3c2)cc1Cl` [Compound 38, (3-(2,6-dioxopiperidin-3-yl)-2-methylquinolin-7-yl)methyl (3-chloro-4-methylphenyl)carbamate] cannot be ordered by activation at 1 µM: under 10% for the first, under 10% for the second.

`COc1ccc(NC(=O)OCc2ccc3cc(C4CCC(=O)NC4=O)c(C)nc3c2)cc1Cl` (stereo not shown) [Compound 11, (3-(2,6-dioxopiperidin-3-yl)-2-methylquinolin-7-yl)methyl (3-chloro-4-methoxyphenyl)carbamate] and `Cc1ccc(NC(=O)OCc2ccc3cc([C@H]4CCC(=O)NC4=O)c(C)nc3c2)cc1Cl` [Compound 39, (3-(2,6-dioxopiperidin-3-yl)-2-methylquinolin-7-yl)methyl (3-chloro-4-methylphenyl)carbamate] cannot be ordered by activation at 1 µM: under 10% for the first, under 10% for the second.

`Cc1nc2cc(COC(=O)Nc3ccc(Cl)c(Cl)c3)ccc2cc1C1CCC(=O)NC1=O` (stereo not shown) [Compound 12, (3-(2,6-dioxopiperidin-3-yl)-2-methylquinolin-7-yl)methyl (3,4-dichlorophenyl)carbamate] and `Cc1nc2cc(COC(=O)Nc3ccc(C(F)(F)F)c(Cl)c3)ccc2cc1C1CCC(=O)NC1=O` (stereo not shown) [Compound 18, (3-(2,6-dioxopiperidin-3-yl)-2-methylquinolin-7-yl)methyl (3-chloro-4-(trifluoromethyl)phenyl)carbamate] cannot be ordered by activation at 1 µM: under 10% for the first, under 10% for the second.

`Cc1nc2cc(COC(=O)Nc3ccc4c(c3)OCO4)ccc2cc1C1CCC(=O)NC1=O` (stereo not shown) [Compound 14, (3-(2,6-dioxopiperidin-3-yl)-2-methylquinolin-7-yl)methyl benzo[d][1,3]dioxol-5-ylcarbamate] and `Cc1nc2cc(COC(=O)Nc3ccc4c(c3)OCCO4)ccc2cc1C1CCC(=O)NC1=O` (stereo not shown) [Compound 15, (3-(2,6-dioxopiperidin-3-yl)-2-methylquinolin-7-yl)methyl (2,3-dihydrobenzo[b][1,4]dioxin-6-yl)carbamate] cannot be ordered by activation at 1 µM: under 10% for the first, under 10% for the second.

`Cc1nc2cc(COC(=O)Nc3cc(Cl)c(C)c(CN4CCOCC4)c3)ccc2cc1C1CCC(=O)NC1=O` (stereo not shown) [Compound 17, (3-(2,6-dioxopiperidin-3-yl)-2-methylquinolin-7-yl)methyl (3-chloro-4-methyl-5-(morpholinomethyl)phenyl)carbamate] and `Cc1nc2cc(COC(=O)Nc3ccc(N4CCOCC4)nc3)ccc2cc1C1CCC(=O)NC1=O` (stereo not shown) [Compound 42, (3-(2,6-dioxopiperidin-3-yl)-2-methylquinolin-7-yl)methyl (6-morpholinopyridin-3-yl)carbamate] cannot be ordered by activation at 1 µM: under 10% for the first, under 10% for the second.

`Cc1nc2cc(COC(=O)Nc3ccc(-c4ccccc4)nc3)ccc2cc1C1CCC(=O)NC1=O` (stereo not shown) [Compound 20, (3-(2,6-dioxopiperidin-3-yl)-2-methylquinolin-7-yl)methyl (6-phenylpyridin-3-yl)carbamate] and `Cc1nc2cc(COC(=O)Nc3cccc(-c4ccccc4)c3)ccc2cc1C1CCC(=O)NC1=O` (stereo not shown) [Compound 46, (3-(2,6-dioxopiperidin-3-yl)-2-methylquinolin-7-yl)methyl [1,1′-biphenyl]-3-ylcarbamate] cannot be ordered by activation at 1 µM: under 10% for the first, under 10% for the second.

`COc1cc(C)c(Cl)cc1NC(=O)OCc1ccc2cc(C3CCC(=O)NC3=O)c(C)nc2c1` (stereo not shown) [Compound 21, (3-(2,6-dioxopiperidin-3-yl)-2-methylquinolin-7-yl)methyl (5-chloro-2-methoxy-4-methylphenyl)carbamate] and `Cc1ccc(NC(=O)OCc2ccc3cc(C4CCC(=O)NC4=O)c(C)nc3c2)c(Cl)c1Cl` (stereo not shown) [Compound 54, (3-(2,6-dioxopiperidin-3-yl)-2-methylquinolin-7-yl)methyl (2,3-dichloro-4-methylphenyl)carbamate] cannot be ordered by activation at 1 µM: under 10% for the first, under 10% for the second.

`Cc1ccc(NC(=O)OCc2cc(F)c3cc(C4CCC(=O)NC4=O)c(C)nc3c2)cc1Cl` (stereo not shown) [Compound 22, (3-(2,6-dioxopiperidin-3-yl)-5-fluoro-2-methylquinolin-7-yl)methyl (3-chloro-4-methylphenyl)carbamate] and `Cc1ccc(NC(=O)OCc2cc3nc(C)c(C4CCC(=O)NC4=O)cc3cc2F)cc1Cl` (stereo not shown) [Compound 49, (3-(2,6-dioxopiperidin-3-yl)-6-fluoro-2-methylquinolin-7-yl)methyl (3-chloro-4-methylphenyl)carbamate] cannot be ordered by activation at 1 µM: under 10% for the first, under 10% for the second.

First: Cc1ccc(NC(=O)NCc2ccc3cc(N4CCC(=O)NC4=O)c(C)nc3c2)cc1Cl [Compound 27, 1-(3-chloro-4-methylphenyl)-3-((3-(2,4-dioxotetrahydropyrimidin-1(2H)-yl)-2-methylquinolin-7-yl)methyl)urea]
Second: Cc1ccc(NC(=O)NCc2ccc3nc(C)c(N4CCC(=O)NC4=O)cc3c2)cc1Cl [Compound 51, 1-(3-chloro-4-methylphenyl)-3-((3-(2,4-dioxotetrahydropyrimidin-1(2H)-yl)-2-methylquinolin-6-yl)methyl)urea]
The activation at 1 µM of the first is lower: under 10% for the first, 10 to 25% for the second.

`Cc1ccc(NC(=O)OCc2ccc3cc(N4CCC(=O)NC4=O)c(C)nc3c2)cc1Cl` [Compound 28, (3-(2,4-dioxotetrahydropyrimidin-1(2H)-yl)-2-methylquinolin-7-yl)methyl (3-chloro-4-methylphenyl)carbamate] and `Cc1ccc(NC(=O)OCc2ccc3nc(C)c(N4CCC(=O)NC4=O)cc3c2)cc1Cl` [Compound 29, (3-(2,4-dioxotetrahydropyrimidin-1(2H)-yl)-2-methylquinolin-6-yl)methyl (3-chloro-4-methylphenyl)carbamate] cannot be ordered by activation at 1 µM: under 10% for the first, under 10% for the second.

`Cc1nc2cc(COC(=O)Nc3cc(C(C)(C)C)no3)ccc2cc1C1CCC(=O)NC1=O` (stereo not shown) [Compound 30, (3-(2,6-dioxopiperidin-3-yl)-2-methylquinolin-7-yl)methyl (3-(tert-butyl)isoxazol-5-yl)carbamate] and `COc1ccc(NC(=O)OCc2ccc3cc(C4CCC(=O)NC4=O)c(C)nc3c2)nn1` (stereo not shown) [Compound 45, (3-(2,6-dioxopiperidin-3-yl)-2-methylquinolin-7-yl)methyl (6-methoxypyridazin-3-yl)carbamate] cannot be ordered by activation at 1 µM: under 10% for the first, under 10% for the second.

`Cc1ccc(NC(=O)CCc2ccc3cc(C4CCC(=O)NC4=O)c(C)nc3c2)cc1Cl` (stereo not shown) [Compound 32, N-(3-chloro-4-methylphenyl)-3-(3-(2,6-dioxopiperidin-3-yl)-2-methylquinolin-7-yl)propanamide] and `Cc1ccc(NC(=O)OCc2ccc3cc(C4CCC(=O)NC4=O)c(C)nc3c2F)cc1Cl` (stereo not shown) [Compound 50, (3-(2,6-dioxopiperidin-3-yl)-8-fluoro-2-methylquinolin-7-yl)methyl (3-chloro-4-methylphenyl)carbamate] cannot be ordered by activation at 1 µM: under 10% for the first, under 10% for the second.

`Cc1nc2cc(COC(=O)Nc3csc(-c4ccccc4)c3)ccc2cc1C1CCC(=O)NC1=O` (stereo not shown) [Compound 37, (3-(2,6-dioxopiperidin-3-yl)-2-methylquinolin-7-yl)methyl (5-phenylthiophen-3-yl)carbamate] and `Cc1ccc(NC(=O)OCc2ccc3c(C)c(C4CCC(=O)NC4=O)c(C)nc3c2)cc1Cl` (stereo not shown) [Compound 44, (3-(2,6-dioxopiperidin-3-yl)-2,4-dimethylquinolin-7-yl)methyl (3-chloro-4-methylphenyl)carbamate] cannot be ordered by activation at 1 µM: under 10% for the first, under 10% for the second.

In the case of `Cc1nc2cc(COC(=O)NC3CCC(C(C)(C)C)CC3)ccc2cc1C1CCC(=O)NC1=O` (stereo not shown) [Compound 55, (3-(2,6-dioxopiperidin-3-yl)-2-methylquinolin-7-yl)methyl (4-(tert-butyl)cyclohexyl)carbamate], the activation at 1 µM is reported as under 10%.
